Calls of active or inactive are those of the source. The calls are words filed in the database; no cut-off is given here.
Tests used:
Plasmodium falciparum [1] = assay: Antiplasmodial activity against Plasmodium falciparum NF54 infected in human erythrocytes after 72 hrs by geimsa staining; format: functional, organism-based; conditions: for IC50: NF54, 72 h
Plasmodium falciparum [2] = assay: Antiplasmodial activity against Plasmodium falciparum NF54 infected in human erythrocytes assessed as decrease in parasitemia measured on day 1 post-treatment by geimsa staining (reference value: 0.65 +/- 02%); format: functional; parameters: scale not given: the % may be the effect or the level left
Plasmodium falciparum [3] = assay: Antiplasmodial activity against Plasmodium falciparum NF54 infected in human erythrocytes assessed as decrease in parasitemia measured on day 2 post-treatment by geimsa staining (reference value: 1.1 +/- 0.09%); format: functional; parameters: scale not given: the % may be the effect or the level left
Plasmodium falciparum [4] = assay: Antiplasmodial activity against Plasmodium falciparum NF54 infected in human erythrocytes assessed as decrease in parasitemia measured on day 4 post-treatment by geimsa staining (reference value: 3.28 +/- 0.11%); format: functional; parameters: scale not given: the % may be the effect or the level left
Plasmodium falciparum [5] = assay: Antiplasmodial activity against Plasmodium falciparum NF54 infected in human erythrocytes assessed as decrease in parasitemia measured on day 3 post-treatment by geimsa staining (reference value: 2.18 +/- 0.17%); format: functional; parameters: scale not given: the % may be the effect or the level left

`CCCc1ccc(-c2ccc(NC3=C(Br)C(=O)c4ncccc4C3=O)cc2)cc1` gave an IC50 (Plasmodium falciparum [1]) of 3 µM.
With `Oc1c(Br)cc(Br)c2cccnc12` the Activity (Plasmodium falciparum [1]) was “inactive”.
Compound `CCN(CC)CCCC(C)Nc1ccnc2cc(Cl)ccc12` (configuration not stated) [CHLOROQUINE] has an Activity (Plasmodium falciparum [2]) of 0.06%, an Activity (Plasmodium falciparum [3]) of 0% and an Activity (Plasmodium falciparum [4]) of 0%. The Activity (Plasmodium falciparum [5]) was 0%.
With `Cc1ccc2c(n1)C(=O)C(Br)=C(N1CCN(c3ccccc3)CC1)C2=O` the Activity (Plasmodium falciparum [2]) was 0.46%, the Activity (Plasmodium falciparum [3]) was 0.29% and the IC50 (Plasmodium falciparum [1]) was 2.21 µM. The Activity (Plasmodium falciparum [4]) was 0% and the Activity (Plasmodium falciparum [5]) was 0%.
`CCCc1ccc(-c2ccc(NC3=C(Br)C(=O)c4nc(C)ccc4C3=O)cc2)cc1` was tested, and the Activity (Plasmodium falciparum [2]) was 0.42%, the Activity (Plasmodium falciparum [3]) was 0.19% and the IC50 (Plasmodium falciparum [1]) was 4.37 µM. The Activity (Plasmodium falciparum [4]) was 0% and the Activity (Plasmodium falciparum [5]) was 0.05%.
Work on `Cc1ccc2c(n1)C(=O)C=C(N1CCN(c3ccccc3)CC1)C2=O` yielded an Activity (Plasmodium falciparum [2]) of 0.43%, an Activity (Plasmodium falciparum [3]) of 0.25% and an IC50 (Plasmodium falciparum [1]) of 3.96 µM. It also gave an Activity (Plasmodium falciparum [4]) of 0% and an Activity (Plasmodium falciparum [5]) of 0.04%.
Compound `Cc1ccc2c(n1)C(=O)C(Br)=C(NN1CCN(NC3=C(Br)C(=O)c4nc(C)ccc4C3=O)CC1)C2=O` has an Activity (Plasmodium falciparum [2]) of 0.65%, an Activity (Plasmodium falciparum [3]) of 0.49% and an IC50 (Plasmodium falciparum [1]) of 3.93 µM. The Activity (Plasmodium falciparum [4]) was 0% and the Activity (Plasmodium falciparum [5]) was 0.05%.
`Cc1ccc2c(Br)cc(Br)c(O)c2n1` [BROQUINALDOL] was tested, and the IC50 (Plasmodium falciparum [1]) was 7.54 µM.
For `O=C1C(O)=C(N2CCN(c3ccccc3)CC2)C(=O)c2ccccc21`, the Activity (Plasmodium falciparum [2]) was 0.5%, the Activity (Plasmodium falciparum [3]) was 0.26% and the IC50 (Plasmodium falciparum [1]) was 3.89 µM. The Activity (Plasmodium falciparum [4]) was 0% and the Activity (Plasmodium falciparum [5]) was 0.03%.
`Cc1ccc2c(n1)C(=O)C(Br)=C(NN1CCN(N)CC1)C2=O` showed an Activity (Plasmodium falciparum [2]) of 0.48%, an Activity (Plasmodium falciparum [3]) of 0.28% and an IC50 (Plasmodium falciparum [1]) of 4.1 µM. For the same compound, the Activity (Plasmodium falciparum [4]) was 0% and the Activity (Plasmodium falciparum [5]) was 0.07%.
